Measurements taken from patent US20260258025A1, “INHIBITORS OF TDP-43 AND TAU AGGREGATION” (Aquinnah Pharmaceuticals, inc., priority 2023, published 2026).
Entries after “also recorded” stand apart in the source; their conditions may differ.

Test system: TDP-43 nuclear localization
Test: TDP-43 localization analysis by immunofluorescence in MG-132 challenged iP11NA human motor neurons
Assay type: cell-based
Experimental: Cell culture and differentiation of iPS Cells into motor neurons. Pluripotent stem cells were grown with mTeSR Plus medium on tissue culture dishes coated with Matrigel, and maintained in 5% CO2 incubators at 37° C. Stem cells were passaged as small aggregates of cells after 1 mM EDTA treatment. […] was added to the cultures for 16-24 h after dissociation to prevent cell death. The iP11NA iPS cell line was acquired from ALSTEM. This cell line was generated from pre-made footprint-free human iPS cells with DOX inducible Ngn2 that has been stably integrated into the human AAVS1 “Safe Harbor” site, and provides a convenient means to differentiate human iPS cells into neurons rapidly and efficiently. Motor neuron differentiation was achieved using a modified 5-day strategy.
This approach relies on neural induction through small molecule inhibition of SMAD signaling, accelerated neural differentiation through forced Ngn2 expression, and motor neuron patterning through the activation of retinoic acid and Sonic Hedgehog signaling pathways. In brief, pluripotent stem cells were dissociated to single cells using accutase and plated at a density of 80,000 cells per cm^2 on Matrigel-coated culture plates with mTeSR Plus medium supplemented with ROCK inhibitor (10 μM Y-27632, ATCC). When cells reached 50% confluency, medium was changed to differentiation medium BrainPhys medium supplemented with N2-A, SM1, […]. This time point was defined as day 0 (d0) of motor neuron differentiation. Treatment with small molecules was carried out as follows: 2 μg/mL Doxycyline, 10 μM SB431542, 100 nM LDN-193189, […] and 1 μM Smoothend agonist and 10 uM Edu. […]
A dose-responsive effect was further tested for Compound 183 using quantitative imaging analysis on the CellInsight™ CX7 High Content Analysis Platform. By comparing the intensity of TDP-43 staining in the nucleus and cytoplasm of human motor neurons, we determined Compound 183 could maintain nuclear TDP-43 from 370 nM-10 μM in the proteasome challenged motor neurons (see FIG. 2).

Cc1cc(-c2ccc(C3CCN(C(C)C)CC3)cc2)sc1C(=O)N1CC[C@H](N)C1 [Compound 183, (S)-(3-aminopyrrolidin-1-yl)(5-(4-(1-isopropylpiperidin-4-yl)phenyl)-3-methylthiophen-2-yl)methanone]
nuclear TDP-43 staining (immunofluorescence) (500 nM Compound 183, pretreated 1 hour and during 1 μM MG-132 for 20 hours, human motor neurons): preventing TDP-43 nuclear clearance; also recorded: TDP-43 staining in the nucleus was observed that was much more similar to that of unchallenged neurons
maintenance of nuclear TDP-43, dose response (nuclear vs cytoplasmic TDP-43 staining intensity) (MG-132 1 μM challenged human motor neurons, CX7 quantitative imaging, effective concentration range): maintaining nuclear TDP-43 in a dose-dependent manner
